Columns and labels:
Format in all cases: in vivo
[1] = test system: Italian ryegrass (Lolium mutiflorum); assay: Test C preemergence, visual plant response rating
How it was run: (§1)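 Compounds in a non-phytotoxic solvent with surfactant were applied as a directed soil spray preemergence or to 2–10 cm, one- to two-leaf plants postemergence, in loam–sand soil. After about 10 d in a greenhouse, injury was visually rated against untreated controls on a 0–100 scale (100 = complete control).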

[2] = test system: barnyardgrass (Echinochloa crus-galli); assay: Test C preemergence, visual plant response rating
How it was run: as §1

[3] = test system: foxtail, giant (giant foxtail, Setaria faberi); assay: Test C preemergence, visual plant response rating
How it was run: as §1

kochia (Bassia scoparia) [4] = assay: Test C preemergence, visual plant response rating
How it was run: as §1

[5] = test system: pigweed (Amaranthus retroflexus); assay: Test C preemergence, visual plant response rating
How it was run: as §1

[6] = test system: ragweed (common ragweed, Ambrosia artemisiifolia); assay: Test C preemergence, visual plant response rating
How it was run: as §1

[7] = test system: Italian ryegrass (Lolium mutiflorum); assay: Test C postemergence, visual plant response rating
How it was run: as §1

[8] = test system: barnyardgrass (Echinochloa crus-galli); assay: Test C postemergence, visual plant response rating; conditions: Test C, postemergence
How it was run: as §1

[9] = test system: blackgrass (Alopecurus myosuroides); assay: Test C postemergence, visual plant response rating; conditions: Test C, postemergence
How it was run: as §1

corn (Zea mays) = assay: Test C postemergence, visual plant response rating; conditions: Test C, postemergence
How it was run: as §1

[10] = test system: foxtail, giant (giant foxtail, Setaria faberi); assay: Test C postemergence, visual plant response rating; conditions: Test C, postemergence
How it was run: as §1

[11] = test system: galium (catchweed bedstraw, Galium aparine); assay: Test C postemergence, visual plant response rating; conditions: Test C, postemergence
How it was run: as §1

kochia (Bassia scoparia) [12] = assay: Test C postemergence, visual plant response rating; conditions: Test C, postemergence
How it was run: as §1

[13] = test system: pigweed (Amaranthus retroflexus); assay: Test C postemergence, visual plant response rating
How it was run: as §1

[14] = test system: ragweed (common ragweed, Ambrosia artemisiifolia); assay: Test C postemergence, visual plant response rating
How it was run: as §1

[15] = test system: wheat (Triticum aestivum); assay: Test C postemergence, visual plant response rating
How it was run: as §1

[16] = test system: barnyardgrass (Echinochloa crus-galli); assay: Test D flooded paddy test, visual plant response rating; conditions: 250 g ai/ha, scale 0 to 100 (0 no effect, 100 complete control), 13 to 15 d
How it was run: (§2)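 2-leaf plants, flooded 3 cm, cpd into paddy water; greenhouse 13–15 d; visual rating vs controls, 0 = no effect, 100 = complete control; dash = no result.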

[17] = test system: duck salad (Heteranthera limosa); assay: as above; conditions: 250 g ai/ha, scale 0 to 100 (0 no effect, 100 complete control), 13 to 15 d
How it was run: as §2

rice (Oryza sativa) = assay: as above; conditions: 250 g ai/ha, scale 0 to 100 (0 no effect, 100 complete control), 13 to 15 d
How it was run: as §2

[18] = test system: sedge umbrella (small-flower umbrella sedge, Cyperus difformis); assay: as above; conditions: 250 g ai/ha, scale 0 to 100 (0 no effect, 100 complete control), 13 to 15 d
How it was run: as §2

[19] = Test C, 31 g ai/ha, 0 is no effect, 100 is complete control
[20] = Test C, postemergence, 125 g ai/ha

CO/N=C(\c1cc(F)cc(F)c1C)c1c(O)c(C)nn(C)c1=O [Compound 152]
Ryegrass, Italian plant response rating (0 to 100 scale) ([1]; 125 g ai/ha): 80 | Ryegrass, Italian plant response rating (0 to 100 scale) [1, 19]: 20 | Barnyardgrass plant response rating (0 to 100 scale) ([2]; 125 g ai/ha): 10 | Barnyardgrass plant response rating (0 to 100 scale) [2, 19]: 0 | Foxtail, Giant plant response rating (0 to 100 scale) ([3]; 125 g ai/ha): 20 | Foxtail, Giant plant response rating (0 to 100 scale) [3, 19]: 0 | Kochia plant response rating (0 to 100 scale) (kochia (Bassia scoparia) [4]; 125 g ai/ha): 10 | Kochia plant response rating (0 to 100 scale) (kochia (Bassia scoparia) [4]; [19]): 0 | Pigweed plant response rating (0 to 100 scale) ([5]; 125 g ai/ha): 30 | Pigweed plant response rating (0 to 100 scale) [5, 19]: 0 | Ragweed plant response rating (0 to 100 scale) ([6]; 125 g ai/ha): 40 | Ragweed plant response rating (0 to 100 scale) [6, 19]: 20 | Ryegrass, Italian plant response rating (0 to 100 scale) ([7]; Postemergence, 31 g ai/ha): 20 | Ryegrass, Italian plant response rating (0 to 100 scale) [7, 20]: 80 | Barnyardgrass plant response rating (0 to 100 scale) ([8]; 31 g ai/ha): 0 | Barnyardgrass plant response rating (0 to 100 scale) ([8]; 125 g ai/ha): 20 | Blackgrass plant response rating (0 to 100 scale) ([9]; 31 g ai/ha): 0 | Blackgrass plant response rating (0 to 100 scale) ([9]; 125 g ai/ha): 10 | Corn plant response rating (0 to 100 scale) (corn (Zea mays); 31 g ai/ha): 0 | Corn plant response rating (0 to 100 scale) (corn (Zea mays); 125 g ai/ha): 0 | Foxtail, Giant plant response rating (0 to 100 scale) ([10]; 31 g ai/ha): 10 | Foxtail, Giant plant response rating (0 to 100 scale) ([10]; 125 g ai/ha): 50 | Galium plant response rating (0 to 100 scale) ([11]; 31 g ai/ha): 80 | Galium plant response rating (0 to 100 scale) ([11]; 125 g ai/ha): 80 | Kochia plant response rating (0 to 100 scale) (kochia (Bassia scoparia) [12]; 31 g ai/ha): 50 | Kochia plant response rating (0 to 100 scale) (kochia (Bassia scoparia) [12]; 125 g ai/ha): 80 | Pigweed plant response rating (0 to 100 scale) ([13]; Postemergence, 31 g ai/ha): 60 | Pigweed plant response rating (0 to 100 scale) [13, 20]: 70 | Ragweed plant response rating (0 to 100 scale) ([14]; Postemergence, 31 g ai/ha): 40 | Ragweed plant response rating (0 to 100 scale) [14, 20]: 90 | Wheat plant response rating (0 to 100 scale) ([15]; Postemergence, 31 g ai/ha): 0 | Wheat plant response rating (0 to 100 scale) [15, 20]: 0 | Plant response rating, Barnyardgrass (Flood) [16]: 0 | Plant response rating, Ducksalad (Flood) [17]: 0 | Plant response rating, Rice (Flood) (rice (Oryza sativa)): 0 | Plant response rating, Sedge, Umbrella (Flood) [18]: 0
